# From article PMC11695783 (Frontiers in Pharmacology, 2024)
# “And” between values parts separate entries of the source, which are not always exact repeats. Equal entries are not always repeated.
# Experiment: Pharmacokinetic studies in mice (intravenous and intramuscular, plasma, HPLC-MS/MS)
# Assay type: in vivo, BALB/c mice
# Parameters: AUClast / AUCall / AUCINF_obs / AUCINF_pred / AUCINFobs: concentration or dose not given beside the values; Tlast / Clast / AUMClast / AUMCINF_obs / AUMCINF_pred / Lambda_z / HL_Lambda_z / Cl_obs / Cl_pred / Cl_F_obs / Tlag / Cl_F_pred: unit not given here
# Details: for plasma concentration, AV: average of mice; for plasma concentration: individual mice 1-8
# Procedure: Pharmacokinetic experimental procedures of compound 16C were measured according to previous reports with some modifications ([Wang et al., 2022]). In brief, BALB/c mice were divided into two groups of eight mice each; one group was injected intravenously and the other was injected intramuscularly with compound 16C at a dose of 10 mg/kg. The dose was based on previous studies of novel pleuromutilin derivatives ([Jin et al., 2019]; [Wang et al., 2022]). Meanwhile, the dose of tiamulin approved by the European Union for intramuscular administration is 10–20 mg/kg ([EMA, 1999]). The volume of the injection was 0.1 mL/10 g. The compound 16C formulation was a filtered solution in 5% DMSO, 5% Tween-80, and 90% normal saline. Blood was obtained from eight mice via the ocular venous plexus at 0.083, 0.167, 0.25, 0.334, 0.5, 0.75, 1, 1.5, 2, 3, 4, 6, 8, and 12 h following tail intravenous or thigh Intramuscular injection. A glass capillary with a diameter of 0.3 mm was inserted into the outer canthus of the mouse, and 200 μL blood was collected using a 1.5 mL anticoagulant centrifuge tube. The blood was centrifuged at 3,000 rpm for 10 min to obtain plasma. 100 μL of plasma was aspirated for drug concentration detection, and eight parallel samples from different mice were obtained at each time point.
# All pharmacokinetic experimental samples and method validation samples were added with 4 times the volume of acetonitrile and shaken for 1 min, centrifuged at high speed at 13,000× g for 10 min, and the supernatants were taken and filtered to detect the drug concentration. Some samples with high concentrations were diluted to the linear range prior to analysis.
# The extracted samples were analyzed using a high-performance liquid chromatography-tandem mass spectrometry (HPLC-MS/MS) system (Agilent, Santa Clara, CA, United States) 1200 HPLC and Applied Biosystems (Waltham, MA, United States) API 4000 mass spectrometer). HPLC-MS/MS analysis using a Zorbax Eclipse XDB-C18 (4.6 × 50 mm, 3.5 μm) column (Agilent). The mobile phase A (acetonitrile) and B (water) were applied as a gradient as follows: 0–3 min: 15%–95% A and maintain from 3 min to 5 min at 95% A. 5–5.1 min: 95%–15% A and maintain from 5.1 to 10 min at 15% A. Flow rate: 500 μL/min; column temperature: 30°C and injection volume: 4 μL. The electrospray ionization (ESI) source of the mass spectrometer was operated in […], with the following ion source parameters: ion spray voltage 4,500 V, collision gas 7 psi, ion source gas 1 55 psi, ion source gas 2 40 psi, curtain gas 20 psi, source temperature 600°C. The precursor ion m/z of Compound 16C was 633.3, and the product ions m/z were 272.0 (quantifier) 286.9 and 313.0. Declustering potentials (DP) were 140, 140, and 144 V, respectively; entrance potential (EP) was 10 V; collision energy (CE) was 55, 46, and 15 V, respectively; and collision cell exit potential (CXP) was 14 V.
# […] Pharmacokinetic parameters include time to maximum concentration (Tmax), maximum concentration (Cmax), the area under the plasma concentration–time curve (AUC0-∞), clearance rate (CL), the apparent volume of distribution (Vd), bioavailability (F), elimination half-life (T1/2kel) and absorption half-life (T1/2ka).
compound,measurement,setting,value
C=C[C@]1(C)C[C@@H](OC(=O)CSc2ccc(NC(=O)Cc3ccc([N+](=O)[O-])cc3)cc2)[C@]2(C)[C@H](C)CC[C@]3(CCC(=O)[C@H]32)[C@@H](C)[C@@H]1O,"plasma concentration, AV","IM, 0.083h",409.1 ng/mL
same,"plasma concentration, AV","IM, 0.17h",470.8 ng/mL
same,"plasma concentration, AV","IM, 0.25h",496 ng/mL
same,"plasma concentration, AV","IM, 0.33h",490 ng/mL
same,"plasma concentration, AV","IM, 0.5h",449.1 ng/mL
same,"plasma concentration, AV","IM, 0.75h",404.2 ng/mL
same,"plasma concentration, AV","IM, 1h",281.2 ng/mL
same,"plasma concentration, AV","IM, 1.5h",246.4 ng/mL
same,plasma concentration,"IM, 1.5h",189 ng/mL and 266 ng/mL and 253 ng/mL and 291 ng/mL and 290 ng/mL and 328 ng/mL and 158 ng/mL and 196 ng/mL
same,"plasma concentration, AV","IM, 2h",158.4 ng/mL
same,plasma concentration,"IM, 2h",100 ng/mL and 171 ng/mL and 124 ng/mL and 153 ng/mL and 195 ng/mL and 254 ng/mL and 139 ng/mL and 131 ng/mL
same,"plasma concentration, AV","IM, 3h",123.2 ng/mL
same,plasma concentration,"IM, 3h",92.5 ng/mL and 183 ng/mL and 129 ng/mL and 115 ng/mL and 122 ng/mL and 146 ng/mL and 111 ng/mL and 87 ng/mL
same,"plasma concentration, AV","IM, 4h",84.54 ng/mL
same,plasma concentration,"IM, 4h",67.6 ng/mL and 99.6 ng/mL and 79.9 ng/mL and 104 ng/mL and 84.5 ng/mL and 117 ng/mL and 51.6 ng/mL and 72.1 ng/mL
same,"plasma concentration, AV","IM, 6h",37.03 ng/mL
same,plasma concentration,"IM, 6h",27 ng/mL and 51.8 ng/mL and 31.4 ng/mL and 43.1 ng/mL and 35.8 ng/mL and 43.3 ng/mL and 20 ng/mL and 43.8 ng/mL
same,"plasma concentration, AV","IM, 8h",18.45 ng/mL
same,plasma concentration,"IM, 8h",13.1 ng/mL and 25.3 ng/mL and 16.7 ng/mL and 19.2 ng/mL and 15 ng/mL and 22.7 ng/mL and 13 ng/mL and 22.6 ng/mL
same,"plasma concentration, AV","IM, 12h",6.302 ng/mL
same,plasma concentration,"IM, 12h",1.85 ng/mL and 6.51 ng/mL and 5.87 ng/mL and 6.37 ng/mL and 4.83 ng/mL and 6.04 ng/mL and 9.7 ng/mL and 9.25 ng/mL
same,AUCINF_obs,"IM, individual mice",1087.9 and 805.258 and 1373.07 and 1092.7 and 1076.67 and 1204.87 and 1450.76 and 1023.1
same,AUCINF_pred,"IM, individual mice",1087.68 and 805.26 and 1373.07 and 1092.68 and 1076.58 and 1204.84 and 1450.76 and 1021.5
same,AUC_%Extrap_obs,"IM, individual mice",3.4748% and 0.4887% and 1.3883% and 1.9994% and 1.9823% and 1.3449% and 1.2619% and 9.501%
same,AUC_%Extrap_pred,"IM, individual mice",3.4549% and 0.489% and 1.388% and 1.9971% and 1.9741% and 1.3423% and 1.262% and 9.3589%
same,AUCall,"IM, individual mice",1050.1 and 801.322 and 1354.01 and 1070.85 and 1055.33 and 1188.66 and 1432.45 and 925.896
same,AUClast,"IM, individual mice",1050.1 and 801.322 and 1354.01 and 1070.85 and 1055.33 and 1188.66 and 1432.45 and 925.896
same,AUMCINF_obs,"IM, individual mice",3193.81 and 1900.71 and 3591.01 and 2771.66 and 3099.57 and 2821.33 and 3581.57 and 4169.2
same,AUMCINF_pred,"IM, individual mice",3190.21 and 1900.74 and 3590.96 and 2771.26 and 3098.18 and 2820.84 and 3581.6 and 4133.86
same,AUMC_%Extrap_obs,"IM, individual mice",19.0405% and 2.9249% and 7.9241% and 12.3927% and 10.57% and 8.8194% and 7.6827% and 51.3426%
same,AUMC_%Extrap_pred,"IM, individual mice",18.949% and 2.9266% and 7.9228% and 12.3802% and 10.53% and 8.8035% and 7.6834% and 50.9267%
same,AUMClast,"IM, individual mice",2585.7 and 1845.12 and 3306.46 and 2428.17 and 2771.94 and 2572.51 and 3306.41 and 2028.62
same,Cl_F_obs,"IM, individual mice",9192.03 and 0.0124 and 0.0073 and 0.0092 and 0.0093 and 0.0083 and 0.0069
same,Cl_F_pred,"IM, individual mice",0.0124 and 0.0073 and 0.0092 and 0.0093 and 0.0083 and 0.0069
same,Clast,"IM, individual mice",9.25 and 1.85 and 6.51 and 5.87 and 6.37 and 4.83 and 6.04 and 9.7
same,Cmax,"IM, individual mice",520 and 469 and 730 and 550 and 410 and 609 and 667 and 531
same,HL_Lambda_z,"IM, individual mice",2.8327 and 1.4744 and 2.0296 and 2.5798 and 2.3224 and 2.3255 and 2.1008 and 6.9461
same,Tlag,"IM, individual mice",0
same,Tlast,"IM, individual mice",12
same,Lambda_z,"IM, individual mice, non-compartmental analysis",0.2447 and 0.4701 and 0.3415 and 0.2687 and 0.2985 and 0.2981 and 0.3299 and 0.0998
same,MRTINF_obs,"IM, individual mice, in h",2.9358 and 2.3604 and 2.6153 and 2.5365 and 2.8788 and 2.3416 and 2.4688 and 4.0751
same,MRTINF_pred,"IM, individual mice, in h",2.9331 and 2.3604 and 2.6153 and 2.5362 and 2.8778 and 2.3413 and 2.4688 and 4.0469
same,MRTlast,"IM, individual mice, in h",2.4623 and 2.3026 and 2.442 and 2.2675 and 2.6266 and 2.1642 and 2.3082 and 2.191
same,Tmax,"IM, individual mice, in h",0.25 and 0.33 and 0.5 and 0.17 and 0.75
same,"plasma concentration, AV","IV, 0.083h",4.976 ng/mL
